In experiment [1] the test system is Wild-type mice. Kind of experiment: Pyruvate tolerance test (PTT). Type of experiment: in vivo, mouse. As to conditions: vs controls. As to the method:
Blood collection and plasma hormone measurements. Blood was collected in EDTA-coated tubes (BD Microtainer®) from trunk bleeding (˜500 μL) after CO2-euthanasia for all hormone assays. The plasma was immediately separated from red blood cells by centrifugation 10 min at 1800 g, aliquoted, frozen over dry ice and stored at −80° C. […] Values are reported as mean±S.E.M. Statistics were performed using a two-tail Student's t-test, and significance levels shown in the figures are *p<0.05 versus vehicle control group or **p<0.01 versus vehicle control group.
RT-PCR analysis of liver gluconeogenesis markers phosphoenolpyruvate carboxykinase (PEPCK) and glucose-6-phosphatase (G6Pase). Total RNA was isolated from liver samples (˜100 mg) using TRIzol® reagent (Invitrogen, 1 mL/100 mg sample), followed by spin-column purification (RNeasy® kit, Qiagen) and on-column DNAse treatment (Qiagen) according to the manufacturer's instructions. RNA concentrations were determined by UV spectrophotometry (NanoDrop). One microgram of total RNA was used for reverse transcription with oligo(dT) primers (SuperScript® III First-Strand Synthesis SuperMix, Life Technologies) according to the manufacturer's instructions. Quantitative PCR reactions included 1 μL of cDNA diluted 1:100, 0.4 μM primers, 2× SYBR Green PCR Master Mix (Invitrogen) in 25 μL total volume, and were read out by a CFX96TM Real-Time PCR Detection System (BioRad). Transcript levels were determined using two known primer pairs^18,19 for each gene of interest (Table 6), which were normalized against tubulin and beta-actin transcripts (ΔΔCT method), and expressed relative to the lowest sample. Duplicate control assays without reverse transcriptase treatment were run for each RNA preparation and primer set used. Statistics were performed using a two-tail Student's t-test, and significance levels shown in the figures are *p<0.05 versus vehicle control group or **p<0.01 versus vehicle control group.

Experiment [2] concerns mice. Put plainly: Blood pressure and heart rate in mouse CGRP model. It counts as in vivo. Here is the method: CGRP is a potent microvascular vasodilator widely expressed in the central and peripheral nervous systems of vertebrates. Administration of CGRP resulting in supraphysiological plasma levels of CGRP results in temporary vasodilation, hypotension, and an increased heart rate.
Nine mice received 250 ng CGRP intravenously (t=0). […] The other five received a control injection of vehicle only.
In addition,the lower panel of FIG. 19 demonstates that the increase in heart rate observed initially after CGRP administration is similar in both groups, but that the heart rate remains […] and the heart change rate is decreased in 6bK-administered mice as compared to controls.

In experiment [3] the target is IDE (R&D) (Homo sapiens, UniProt P14735). Kind of experiment: Yonetani-Theorell double inhibitor kinetic assay. Type of experiment: biochemical. Further details: recombinant human IDE42-1019 (R&D Systems); purchased R&D Systems. The conditions noted are these: 6b together with substrate mimetic Ii1. The text has this:
Protease assays with fluorogenic peptide substrates. […] All assay data points were obtained in duplicate.

SMILES strings stand for the structures. “Also recorded” adds a separate entry of the source.

Chain of IDE (R&D) (P14735 42-1019): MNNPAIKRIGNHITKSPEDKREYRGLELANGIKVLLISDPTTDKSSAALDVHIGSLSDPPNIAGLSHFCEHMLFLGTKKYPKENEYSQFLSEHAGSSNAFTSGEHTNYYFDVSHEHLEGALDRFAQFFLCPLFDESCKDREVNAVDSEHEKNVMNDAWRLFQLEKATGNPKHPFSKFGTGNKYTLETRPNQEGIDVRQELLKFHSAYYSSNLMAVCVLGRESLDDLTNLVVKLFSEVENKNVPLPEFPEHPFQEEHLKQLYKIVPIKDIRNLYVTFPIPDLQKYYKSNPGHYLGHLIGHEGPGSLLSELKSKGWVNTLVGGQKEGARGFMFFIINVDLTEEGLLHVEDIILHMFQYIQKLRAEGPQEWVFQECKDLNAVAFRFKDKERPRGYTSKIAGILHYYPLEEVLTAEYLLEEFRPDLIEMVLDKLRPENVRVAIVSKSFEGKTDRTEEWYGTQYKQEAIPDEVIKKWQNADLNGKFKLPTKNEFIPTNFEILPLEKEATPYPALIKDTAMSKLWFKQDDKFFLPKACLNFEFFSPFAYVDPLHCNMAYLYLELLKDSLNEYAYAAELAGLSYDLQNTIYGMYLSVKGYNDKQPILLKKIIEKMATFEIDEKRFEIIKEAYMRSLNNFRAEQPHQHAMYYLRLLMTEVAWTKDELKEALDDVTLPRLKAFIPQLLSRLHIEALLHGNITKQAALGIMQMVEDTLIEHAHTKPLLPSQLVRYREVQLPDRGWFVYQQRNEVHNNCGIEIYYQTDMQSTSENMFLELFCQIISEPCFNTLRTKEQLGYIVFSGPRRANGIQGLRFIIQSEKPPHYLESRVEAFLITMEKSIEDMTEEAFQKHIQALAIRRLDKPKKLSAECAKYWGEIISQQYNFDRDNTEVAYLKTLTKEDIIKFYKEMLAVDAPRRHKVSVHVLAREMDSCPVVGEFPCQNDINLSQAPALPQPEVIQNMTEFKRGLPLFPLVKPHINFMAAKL

In the case of `NCCCC[C@@H]1NC(=O)/C=C/C(=O)N[C@H](C(N)=O)CCCCNC(=O)[C@@H](Cc2ccc(C(=O)c3ccccc3)cc2)NC(=O)[C@H](CC2CCCCC2)NC1=O` [Compound 6bK], in experiment [1] (60 min post-PTT, pyruvate 2.0 g/kg i.p.), the plasma glucagon result is recorded as “significantly elevated”. In experiment [1] (60 min post-PTT), the “expression of liver gluconeogenic markers” value is “increased; also recorded: elevated” and the plasma insulin levels result was “similar”. Moreover, the “blood glucose during the PTT” value in experiment [1] (pyruvate 2.0 g/kg i.p.) is “significantly lower”. Further, the “return of blood pressure to baseline / duration of CGRP-induced hypotension” value in experiment [2] (1 mg 6bK i.p. 30 min before 250 ng CGRP i.v.) was “slower kinetics; also recorded: increases the duration”. The baseline blood pressure result in experiment [2] (mice, 1 mg 6bK i.p., vs vehicle) is recorded as “reduced; also recorded: lowered”. For the same molecule, the baseline heart rate result in experiment [2] (mice, 1 mg 6bK, vs control) was “reduced”.

With `NC(=O)CCC1NC(=O)C=CC(=O)NC(C(N)=O)CCCCNC(=O)C(Cc2ccc(C(=O)c3ccccc3)cc2)NC(=O)C(CC2CCCCC2)NC1=O` (centres unmarked) [Compound 6b], the “mode of double inhibition with Ii1” value in experiment [3] is on record as “synergistic”.

Values taken from US20160282364A1, “ASSAY FOR INSULIN-DEGRADING ENZYME (IDE) INHIBITORS” (PRESIDENT AND FELLOWS OF HARVARD COLLEGE, priority 2013, published 2016).
